Here are results for 1 compound from PMC11465415, “Characterization of conformational states of the homodimeric enzyme fluoroacetate dehalogenase by ^19F–^13C two-dimensional NMR” (RSC Chemical Biology, 2024).

The assay concerns the target T1, fluoroacetate dehalogenase (FAcD) (Rhodopseudomonas palustris, UniProt Q6NAM1).
T1 construct: gene RPA1163; 300-residue homodimer expressed in E. coli BL21; all Trp replaced biosynthetically by 5-fluoro-(phenyl-13C6)-L-tryptophan; 9 Trp per protomer
Description: […]-13C TROSY HSQC and 1D […] NMR. In kind it is binding. Particulars: 50 °C; enzyme saturated with bromoacetate; 5-fluorotryptophan-labelled enzyme; active site; unreacted substrate analogue.

T1 sequence (Q6NAM1 whole entry): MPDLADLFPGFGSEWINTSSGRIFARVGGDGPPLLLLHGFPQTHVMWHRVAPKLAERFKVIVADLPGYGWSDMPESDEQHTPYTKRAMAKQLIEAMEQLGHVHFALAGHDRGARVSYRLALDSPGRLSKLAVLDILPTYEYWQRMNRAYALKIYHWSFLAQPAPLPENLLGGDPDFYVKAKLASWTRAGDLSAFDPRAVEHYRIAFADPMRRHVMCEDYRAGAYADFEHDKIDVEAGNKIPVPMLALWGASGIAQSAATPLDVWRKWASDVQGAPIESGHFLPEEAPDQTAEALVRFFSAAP

`O=C(O)CBr` [bromoacetate]: the “19F-13C TROSY HSQC and 1D 19F NMR” value is “The addition of BrAc is also observed to result in a pronounced shift for W185”.
